Source: PMC12498288 (Frontiers in Immunology, 2025)
“And” between values parts separate entries of the source, which are not always exact repeats. Identical values can stand only once. Like-named read-outs stand apart in the source and are kept apart here.

How the values were obtained:
[1] = Pharmacokinetics after a single oral dose in Syrian hamsters (serum, HPLC-MS/MS); assay type: in vivo; details: for C(24 h): mean concentration at 24 h; for Cmax / AUC / Tmax / half-life: po
Excerpt: Zapnometinib was synthesized by Chemcon GmbH (Freiburg, Germany). Before administration to Syrian hamsters, it was freshly dissolved in dimethyl sulfoxide (DMSO) (Carl Roth GmbH, Karlsruhe, Germany) and then further dissolved in 15% Kolliphor EL (Sigma-Aldrich, Germany) and 80% phosphate-buffered saline (PBS) (Gibco, Life Technology Europe B.V., Bleiswijk, the Netherlands). Kolliphor EL is used to emulsify and solubilize oils and other water in-soluble substances, it has been used as a pharmaceutical solvent for numerous drugs and has proven in previous in vivo studies with zapnometinib. Zapnometinib was administered orally at the indicated doses in a volume of 500 μL/150 g body weight using a gavage needle.
Drug administration and blood sampling in Syrian hamsters were performed by Viroclinics Xplore (Schaijk, the Netherlands) and are described in the sections “Drug administration” and “Sampling after inoculation”. Specifically, at different time points (0, 0.5, 1, 2, 4, 8, 12, and 24 h) after the administration of a single dose of zapnometinib (15, 30, or 60 mg/kg per oral (p.o.)), ~200 µL blood was collected retro-orbitally from three animals per time point per dose and alternating animals between time points (except at 24 h, n = 6 per group) under isoflurane anesthesia using a heparinized capillary tube containing a clot activator (Microvette 500 Z-Gel, Sarstedt). Serum was collected by centrifuging the tubes at 4000 x g for 10 min, aliquoted, and stored at < -70°C until pharmacokinetic analysis. Daily clinical observations included monitoring of signs such as ruffled fur, hunched back posture, accelerated breathing and lethargy, and the body weight was monitored before and 24 h post administration.
Bioanalysis and pharmacokinetic evaluation were performed at Prolytic GmbH (Frankfurt, Germany). […] liquid chromatography tandem mass spectrometry (HPLC-MS/MS) was employed to determine the concentration of zapnometinib in hamster serum in accordance with the company’s SOPs. During the analytical phase, two batches were evaluated. The acceptance criteria for the calibration standards and quality control (QC) samples were fulfilled for both batches as per the company’s SOPs. […] In total, 81 study test samples were analyzed. The validity of the method during the analysis of the test samples was ensured by assaying QC samples with known concentrations of zapnometinib; zapnometinib 13C6 was used as the internal standard. The lower limit of quantification (LLOQ) of the method was determined to be 10 ng/mL for zapnometinib in undiluted serum. All serum concentrations falling below LLOQ were assigned a value of 0. ANALYST software was used to calculate the concentrations of the test and QC samples based on the corresponding calibration curves. The obtained mean serum concentrations were used for noncompartmental pharmacokinetic evaluation with Phoenix® WinNonLin software (Pharsight Corporation, Mountain View, CA, USA; version 8.1).

HCoV OC43 = experiment: Virus yield reduction assay, HCoV-OC43 on MRC-5 cells (RT-qPCR); assay type: cell-based; details: Betacoronavirus 1, OC43, MRC5, MOI 0.1, 24 h
Experimental: The virus yield reduction assay of HCoV-229E and HCoV-OC43 was performed on MRC-5 cells seeded at 1.5x10^5 cells per well in 24-well plates 24 h prior infection with HCoV-229E (MOI 0.001) or HCoV-OC43 (MOI 0.1) for 1 h. The inoculum was completely removed, and the cells were treated with different concentrations of zapnometinib (50 µM to 0.006 µM) and a solvent control in Iscove’s Modified Dulbecco’s Medium (IMDM) containing 2% FBS, 1% Penicillin/Streptomycin at 34°C, 5% CO2 for 24 h (HCoV-OC43) or 48 h (HCoV-229E). Supernatants were harvested and the viral titer was determined by a real-time one-step multiplex RT-qPCR using specific primers targeting the N and NS2 genes for HCoV-229E and HCoV-OC43 respectively ( Supplementary Table 1 ) EC50 values were calculated based on the measured viral titers normalized to the solvent control (1% DMSO) and using the “log(inhibitor) vs. response - Variable slope (four parameters)” analysis in GraphPad Prism v9.

[2] = Syrian, hamster, serum, 15 mg/kg p.o. single dose
[3] = Syrian, hamster, serum, 30 mg/kg p.o. single dose
[4] = hamster, serum, 60 mg/kg p.o. single dose
[5] = single doses of 15, 30 or 60 mg/kg p.o.

Compound: O=C(O)c1ccc(F)c(F)c1Nc1ccc(I)cc1Cl [zapnometinib]
- C(24 h) ([1]; 15 mg/kg p.o. single dose): 0.26 µM
- C(24 h) ([1]; 30 mg/kg p.o. single dose): 0.55 µM
- Cmax ([1]; Syrian, hamster, 15 mg/kg p.o. single dose, serum): 85100 ng/mL and 34.8 µM
- Cmax ([1]; Syrian, hamster, 30 mg/kg p.o. single dose, serum): 53.9 µM
- concentration at 24 h ([1]; Syrian, hamster, serum, oral, 60 mg/kg p.o. single dose, read-out: concentration of zapnometinib after 24 h): 5320 ng/mL and 13 µM
- AUC [1, 2]: 672 µg·h/mL
- Tmax [1, 2]: 2 h
- half-life ([1]; Syrian, hamster, serum, 15 mg/kg p.o. single dose, read-out: T1/2 (converted)): 2.74 h
- AUC [1, 3]: 1230 µg·h/mL
- Tmax [1, 3]: 2 h
- half-life ([1]; Syrian, hamster, serum, 30 mg/kg p.o. single dose, read-out: T1/2 (converted)): 2.75 h
- half-life ([1]; Syrian, hamster, serum, all dose groups (15, 30, 60 mg/kg p.o.), read-out: apparent terminal half-life): 2 to 3 h
- Cmax ([1]; hamster, 30 mg/kg p.o. single dose, serum): 132 µg/mL
- Cmax ([1]; hamster, 60 mg/kg p.o. single dose, serum): 242000 ng/mL and 99.2 µM
- AUC [1, 4]: 2970 µg·h/mL
- Tmax [1, 4]: 4 h
- half-life ([1]; hamster, serum, 60 mg/kg p.o. single dose, read-out: T1/2 (converted)): 3.07 h
- adverse events [1, 5]: no adverse events were reported
- tolerability [1, 5]: well tolerated
- EC50 (HCoV OC43): 16.1 µM and 6.6 µg/mL
